Measured values: patent publication US20120283216A1, “FUNGICIDAL 2-(BICYCLIC ARYLOXY)CARBOXAMIDES” (priority 2009, published 2012)

How the values were obtained:
Assay type in all cases: in vivo
[1] = system: Blumeria graminis f. sp. tritici; assay: Test A: wheat powdery mildew, preventive spray on wheat seedlings, visual disease rating; conditions: preventive spray at 40 ppm, rated 8 days after inoculation; for pest or weed control at 40 ppm: Blumeria graminis, 192 h, read-out: Test A disease control rating (100 = 100% disease control, 0 = no disease control relative to the controls)
Text: General protocol for preparing test suspensions for Tests A-C: the test compounds were first dissolved in acetone in an amount equal to 11% of the final volume and then suspended at the desired concentration (in ppm) in acetone and purified water (50/50 mix by volume) containing 250 ppm of the surfactant Trem® 014 (polyhydric alcohol esters). The resulting test suspensions were then used in Tests A-C. Spraying a 40 ppm test suspension to the point of run-off on the test plants was the equivalent of a rate of 800 g/ha. The test suspension was sprayed to the point of run-off on wheat seedlings. The following day the seedlings were inoculated with a spore dust of Blumeria graminis f. sp. tritici, (the causal agent of wheat powdery mildew) and incubated in a growth chamber at 20° C. for 8 days, after which time disease ratings were visually made. Results for Tests A-C are given in Table A. In the Table, a rating of 100 indicates 100% disease control and a rating of 0 indicates no disease control (relative to the controls). A dash (-) indicates no test results. All results are from applications of 40 ppm.

Septoria tritici = assay: Test B: wheat leaf blotch, preventive spray on wheat seedlings, visual disease rating; conditions: preventive spray at 40 ppm, rated after 48 h + 19 days; for pest or weed control at 40 ppm: Zymoseptoria tritici, 504 h, read-out: Test B disease control rating (100 = 100% disease control, 0 = no disease control relative to the controls)
Text: General protocol for preparing test suspensions for Tests A-C: the test compounds were first dissolved in acetone in an amount equal to 11% of the final volume and then suspended at the desired concentration (in ppm) in acetone and purified water (50/50 mix by volume) containing 250 ppm of the surfactant Trem® 014 (polyhydric alcohol esters). The resulting test suspensions were then used in Tests A-C. Spraying a 40 ppm test suspension to the point of run-off on the test plants was the equivalent of a rate of 800 g/ha. The test suspension was sprayed to the point of run-off on wheat seedlings. The following day the seedlings were inoculated with a spore suspension of Septoria tritici (the causal agent of wheat leaf blotch) and incubated in a saturated atmosphere at 20° C. for 48 h, and then moved to a growth chamber at 20° C. for 19 days, after which time disease ratings were visually made. Results for Tests A-C are given in Table A. In the Table, a rating of 100 indicates 100% disease control and a rating of 0 indicates no disease control (relative to the controls). A dash (-) indicates no test results. All results are from applications of 40 ppm.

Botrytis cinerea = assay: Test C: tomato botrytis, preventive spray on tomato seedlings, visual disease rating; conditions: preventive spray at 40 ppm, rated after 48 h + 3 days; for pest or weed control at 40 ppm: Botrytis cinerea, 120 h, read-out: Test C disease control rating (100 = 100% disease control, 0 = no disease control relative to the controls)
Text: General protocol for preparing test suspensions for Tests A-C: the test compounds were first dissolved in acetone in an amount equal to 11% of the final volume and then suspended at the desired concentration (in ppm) in acetone and purified water (50/50 mix by volume) containing 250 ppm of the surfactant Trem® 014 (polyhydric alcohol esters). The resulting test suspensions were then used in Tests A-C. Spraying a 40 ppm test suspension to the point of run-off on the test plants was the equivalent of a rate of 800 g/ha.
The test suspension was sprayed to the point of run-off on tomato seedlings. The following day the seedlings were inoculated with a spore suspension of Botrytis cinerea (the causal agent of tomato botrytis) and incubated in saturated atmosphere at 20° C. for 48 h, and then moved to a growth chamber at 27° C. for 3 additional days, after which time disease ratings were visually made.
Results for Tests A-C are given in Table A. In the Table, a rating of 100 indicates 100% disease control and a rating of 0 indicates no disease control (relative to the controls). A dash (-) indicates no test results. All results are from applications of 40 ppm.

| SMILES | pest or weed control at 40 ppm [1] [%] | pest or weed control at 40 ppm (Septoria tritici) [%] | pest or weed control at 40 ppm (Botrytis cinerea) [%] | Test A disease control rating (100 = 100% disease control, 0 = no disease control relative to the controls) [1] [%] | Test B disease control rating (100 = 100% disease control, 0 = no disease control relative to the controls) (Septoria tritici) [%] | Test C disease control rating (100 = 100% disease control, 0 = no disease control relative to the controls) (Botrytis cinerea) [%] |
| --- | --- | --- | --- | --- | --- | --- |
| C#Cc1ccc2ccc(OC(CC)C(=O)NC(C)(C)C)cc2c1 (stereo not drawn) [Compound 109, N-(1,1-dimethylethyl)-2-[(7-ethynyl-2-naphthalenyl)oxy]butanamide] | 100 | 100 | 99 | – | – | – |
| C#CCOc1ccc2ccc(OC(OC)C(=O)NC(C)(C)CC)cc2c1 (stereo not drawn) [Compound 137] | – | – | – | 87 | 94 | 99 |
| CCOc1ccc2ccc(OC(OC)C(=O)NC(C)(C)C#N)cc2c1 (stereo not drawn) [Compound 68] | – | – | – | 100 | 100 | 100 |
| CCC(Oc1cnc2ccc(Br)cc2c1)C(=O)NC(C)(C)C (stereo not drawn) [Compound 37, 2-[(6-bromo-3-quinolinyl)oxy]-N-(1,1-dimethylethyl)butanamide] | 89 | 100 | 99 | – | – | – |
| COCC(C)(C)NC(=O)C(C)Oc1cnc2ccc(I)cc2c1 (stereo not drawn) [Compound 59, 2-[(6-iodo-3-quinolinyl)oxy]-N-(2-methoxy-1,1-dimethylethyl)propanamide] | 0 | 95 | 99 | – | – | – |
| CCC(Oc1ccc2ccc(OCOC)cc2c1)C(=O)NC(C)(C)C (stereo not drawn) [Compound 71] | – | – | – | 81 | 99 | 99 |
| CCC(Oc1ccc2ccc(Br)cc2c1)C(=O)NC(C)(C)COC (stereo not drawn) [Compound 7, 2-[(7-bromo-2-naphthalenyl)oxy]-N-(2-methoxy-1,1-dimethylethyl)butanamide] | 100 | 99 | 99 | – | – | – |
| CCC(Oc1ccc2ccc(C#N)cc2c1)C(=O)NC(C)(C)COC (stereo not drawn) [Compound 21] | – | – | – | 91 | 99 | 99 |
| CCC(Oc1ccc2ccc(Br)cc2c1)C(=O)NN(C)C (stereo not drawn) [Compound 9] | 69 | 99 | 99 | – | – | – |
| CCC(Oc1ccc2ccc(Br)cc2c1)C(=O)NC(C)(C)CNC(=O)OC(C)(C)C (stereo not drawn) [Compound 12] | – | – | – | 0 | 93 | 0 |
| COC(Oc1ccc2ccc(C(F)F)cc2c1)C(=O)NC(C)(C)C#N (stereo not drawn) [Compound 79] | – | – | – | 72 | 98 | 99 |
| C#CCOc1ccc2ccc(OC(OC)C(=O)NC(C)(C)C)cc2c1 (stereo not drawn) [Compound 131] | – | – | – | 68 | 100 | 100 |
| CCC(Oc1ccc2ccc(Br)cc2c1)C(=O)NC(C)(C)C (stereo not drawn) [Compound 8, 2-[(7-bromo-2-naphthalenyl)oxy]-N-(1,1-dimethylethyl)butanamide] | 100 | 99 | 99 | – | – | – |
| CCOc1ccc2ccc(OC(OC)C(=O)NC(C)(C)COC)cc2c1 (stereo not drawn) [Compound 70] | – | – | – | 100 | 100 | 98 |
| CCC(Oc1cnc2ccc(I)cc2c1)C(=O)NC(C)(C)COC (stereo not drawn) [Compound 53] | – | – | – | 99 | 100 | 99 |
| COCC(C)(C)NC(=O)C(OC)Oc1cnc2ccc(Br)cc2c1 (stereo not drawn) [Compound 154] | – | – | – | 91 | 99 | 94 |
| CCC(Oc1cnc2ccc(Br)cc2c1)C(=O)NC(C)(C)COC (stereo not drawn) [Compound 48] | – | – | – | 96 | 99 | 99 |
| CC#Cc1ccc2ncc(OC(OC)C(=O)NC(C)(C)COC)cc2c1 (stereo not drawn) [Compound 158] | – | – | – | 98 | 38 | 99 |
| CCC(Oc1ccc2ccc(C#C[Si](C)(C)C)cc2c1)C(=O)NC(C)(C)COC (stereo not drawn) [Compound 96] | – | – | – | 0 | 100 | 99 |
| CCC(Oc1ccc2ccc(Br)cc2c1)C(=O)NC(C)(C)C=O (stereo not drawn) [Compound 17] | – | – | – | 89 | 100 | 99 |
| CCC(Oc1cnc2ccc(F)cc2c1)C(=O)NC1(C#N)CC1 (stereo not drawn) [Compound 46] | – | – | – | 0 | 0 | 0 |
| COCC(C)(C)NC(=O)C(OC)Oc1ccc2ccc(I)cc2c1 (stereo not drawn) [Compound 103, 2-[(7-iodo-2-naphthalenylyl)oxy]-2-methoxy-N-(2-methoxy-1,1-dimethylethyl)acetamide] | – | – | – | 100 | 100 | 100 |
